Experimental data taken from patent US20230174575A1 (priority 2020, published 2023).
Where two headings read alike, the source gives them in different places.

Legend:
[1] = tested on: SARS-CoV-2; assay: Virucidal activity, plaque test; format: cell-based
[2] = tested on: Vero cells; assay: Cell toxicity against Vero cells by MTT assay; conditions: MTT assay
Experimental: (§1) Cell toxicity was monitored by establishing the effect of lysozyme HCl against Vero cells (epithelial cells of monkey kidneys). The cells were seeded in 96-well plates at the concentration of 1×10^4 cells/well. 24 hours after seeding, the cells were treated with serial dilutions of lysozyme HCl or chloroquine (as control), in a final volume of 200 in triplicate. After 72 hours' incubation at 37° C. with 5% CO2, cell viability was measured by MTT assay (D'Alessandro, M. et al., Differential effects on angiogenesis of two antimalarial compounds, dihydroartemisinin and artemisone: Implications for embryotoxicity, Toxicology. 241 (2007) 66-74. Doi: 10.1016/j.tox.2007.08.084).
(§2) The data were calculated as percentage cell viability using the formula:
(§3) [(absorbance of sample−blank of cell-free sample)/mean absorbance of control of media]×100.
(§4) The cytotoxicity of ovotransferrin and chloroquine (CQ) was measured by MTT assay, similarly to the method used for lysozyme HCl.

[3] = Cell toxicity against Vero cells by MTT assay; conditions: African green monkey
Experimental: as §1, §2, §3, §4

[4] = tested on: Micrococcus lysodeikticus cells; assay: Enzyme activity, enzymatic turbidimetric method (FIP method); format: biochemical
Experimental: • Flow rate: 1 ml/min Determination of assay value (enzymatic turbidimetric method using Micrococcus lysodeikticus cells): according to the FIP method (Pharmaceutical Enzyme, Ed 1997, 84, 375) and J Pharm Pharmacol. 2001; 53 (4); 549-54.

[5] = tested on: SARS-CoV-2; format: cell-based; conditions: for Percentage replication of SARS-CoV-2 (lysozyme only): no ovotransferrin

Molecule: Heat-treated lysozyme: lysozyme HCl heat-treated at 99° C. for 40 minutes
- mean PFU/ml (average of three experiments) ([1]; 0.42 mg/ml): 58.61 PFU/ml
- percentage (PFU relative to untreated infected cells) ([1]; 0.42 mg/ml): 57.2%
- infectivity of SARS-CoV-2 reduced by ([1]; 0.42 mg/ml, plaque assay): 57.2%
- mean PFU/ml (average of three experiments) ([1]; 0.56 mg/ml): 60.41 PFU/ml
- percentage (PFU relative to untreated infected cells) ([1]; 0.56 mg/ml): 58.9%
- infectivity of SARS-CoV-2 reduced by ([1]; 0.56 mg/ml, plaque assay): 58.9%
- mean PFU/ml (average of three experiments) ([1]; 1 mg/ml): 71.32 PFU/ml
- percentage (PFU relative to untreated infected cells) ([1]; 1 mg/ml): (69.6%)
- infectivity of SARS-CoV-2 reduced by ([1]; 1 mg/ml, plaque assay): 69.6%

Molecule: CCN(CC)CCCC(C)Nc1ccnc2cc(Cl)ccc12 (stereo not drawn) [CQ, chloroquine, reference compound]
- CC10 ([2]; unit not given): 20.93±4.39
- CC50 at 72 h [3]: 95.3 ± 18 µM

Molecule: lysozyme hydrochloride [Lysozyme HCl]
- CC50 for Vero cells ([2]; 72 hours): 13.3 mg/mL
- Enzyme activity (turbidimetric method) ([4]; No heat treatment): 98.7
- Enzyme activity (turbidimetric method) ([4]; after dry heat treatment (74° C. for 60 min)): 98.8
- Enzyme activity (turbidimetric method) ([4]; after dry heat treatment (99° C. for 40 min)): 98.1
- Enzyme activity (turbidimetric method) ([4]; after heat treatment in aqueous solution, 90° C. for 3 minutes): 97.3
- Enzyme activity (turbidimetric method) ([4]; after heat treatment in aqueous solution, 90° C. for 6 minutes): 97.4
- Enzyme activity (turbidimetric method) ([4]; after heat treatment in aqueous solution, 90° C. for 20 minutes): 92.1
- Enzyme activity (turbidimetric method) ([4]; after heat treatment in aqueous solution, 90° C. for 25 minutes): 88.8
- mean PFU/ml (average of three experiments) ([1]; 0.42 mg/ml): 70 PFU/ml
- percentage (PFU relative to untreated infected cells) ([1]; 0.42 mg/ml): 83.9%
- mean PFU/ml (average of three experiments) ([1]; 0.56 mg/ml): 61.65 PFU/ml
- percentage (PFU relative to untreated infected cells) ([1]; 0.56 mg/ml): 84.1%
- mean PFU/ml (average of three experiments) ([1]; 1 mg/ml): 75 PFU/ml
- percentage (PFU relative to untreated infected cells) ([1]; 1 mg/ml): (<100%)
- reduction of infectivity of SARS-CoV-2 ([1]; any of the doses used (0.42, 0.56, 1 mg/ml), plaque assay): did not reduce the infectivity
- antiviral activity against SARS-CoV-2 infection in the in vitro test [5]: high antiviral activity
- percentage viral replication [5]: very low, and close to zero
- % viral replication (average of 9 replications) ([5]; Dry heat treatment (74° C. for 60 min), 0.33 mg/mL): 83.24%
- % viral replication (average of 9 replications) ([5]; Dry heat treatment (74° C. for 60 min), 0.5 mg/mL): 42.05%
- % viral replication (average of 9 replications) ([5]; Dry heat treatment (74° C. for 60 min), 0.75 mg/mL): 11.31%
- % viral replication (average of 9 replications) ([5]; Dry heat treatment (99° C. for 40 min), 0.33 mg/mL): 60.32%
- % viral replication (average of 9 replications) ([5]; Dry heat treatment (99° C. for 40 min), 0.5 mg/mL): 35.56%
- % viral replication (average of 9 replications) ([5]; Dry heat treatment (99° C. for 40 min), 0.75 mg/mL): 16.58%
- % viral replication (average of 9 replications) ([5]; Heat treatment in aqueous solution, 90° C. for 3 minutes, 0.33 mg/mL): 87.85%
- % viral replication (average of 9 replications) ([5]; Heat treatment in aqueous solution, 90° C. for 3 minutes, 0.5 mg/mL): 67.97%
- % viral replication (average of 9 replications) ([5]; Heat treatment in aqueous solution, 90° C. for 3 minutes, 0.75 mg/mL): 15.55%
- % viral replication (average of 9 replications) ([5]; Heat treatment in aqueous solution, 90° C. for 6 minutes, 0.33 mg/mL): 87.96%
- % viral replication (average of 9 replications) ([5]; Heat treatment in aqueous solution, 90° C. for 6 minutes, 0.5 mg/mL): 51.62%
- % viral replication (average of 9 replications) ([5]; Heat treatment in aqueous solution, 90° C. for 6 minutes, 0.75 mg/mL): 9.88%
- % viral replication (average of 9 replications) ([5]; Heat treatment in aqueous solution, 90° C. for 20 minutes, 0.33 mg/mL): 78.00%
- % viral replication (average of 9 replications) ([5]; Heat treatment in aqueous solution, 90° C. for 20 minutes, 0.5 mg/mL): 36.10%
- % viral replication (average of 9 replications) ([5]; Heat treatment in aqueous solution, 90° C. for 20 minutes, 0.75 mg/mL): 18.30%
- % viral replication (average of 9 replications) ([5]; Heat treatment in aqueous solution, 90° C. for 25 minutes, 0.33 mg/mL): 42.06%
- % viral replication (average of 9 replications) ([5]; Heat treatment in aqueous solution, 90° C. for 25 minutes, 0.5 mg/mL): 24.61%
- % viral replication (average of 9 replications) ([5]; Heat treatment in aqueous solution, 90° C. for 25 minutes, 0.75 mg/mL): 2.62%
- % viral replication (average of 9 replications) ([5]; No heat treatment, 0.33 mg/mL): 79.72%
- % viral replication (average of 9 replications) ([5]; No heat treatment, 0.5 mg/mL): 58.13%
- % viral replication (average of 9 replications) ([5]; No heat treatment, 0.75 mg/mL): 25.51%
- Percentage replication of SARS-CoV-2 (lysozyme only) ([5]; lysozyme HCl 0.32 mg/ml): 93%
- Percentage replication of SARS-CoV-2 (lysozyme only) ([5]; lysozyme HCl 0.42 mg/ml): 89%
- Percentage replication of SARS-CoV-2 (lysozyme only) ([5]; lysozyme HCl 0.56 mg/ml): 93%
- viral replication inhibited by ([5]; lysozyme HCl 0.75 mg/ml, in the absence of ovotransferrin): about 62%
- Percentage replication of SARS-CoV-2 (lysozyme only) ([5]; lysozyme HCl 0.75 mg/ml): 62%
